Assay results reported in ChEMBL document CHEMBL1240467, “Synthesis and antibacterial activities of 6-O-methylerythromycin A 9-O-(3-aryl-2-propenyl) oxime ketolide, 2,3-enol ether, and alkylide analogues” (2010).
Converted amounts (≈) assume the structure as drawn.

Experiments:
Assay type in all cases: functional
[1] = system: Streptococcus pneumoniae; test: Antibacterial activity against erythromycin-susceptible Streptococcus pneumoniae ATCC 49619 by broth microdilution method
[2] = system: Streptococcus pneumoniae; test: Antibacterial activity against erythromycin-resistant Streptococcus pneumoniae PU-11 expressing erm and mef gene by broth microdilution method
[3] = system: Staphylococcus aureus; test: Antibacterial activity against erythromycin-susceptible Staphylococcus aureus ATCC 29213 by broth microdilution method
[4] = system: Staphylococcus aureus; test: Antibacterial activity against erythromycin-resistant Staphylococcus aureus PU-19 expressing erm(A) gene by broth microdilution method
[5] = system: Staphylococcus aureus; test: Antibacterial activity against erythromycin-resistant Staphylococcus aureus PU-32 expressing erm(A) gene by broth microdilution method
[6] = system: Streptococcus pneumoniae; test: Antibacterial activity against erythromycin-resistant Streptococcus pneumoniae PU-09 expressing mef gene by broth microdilution method
[7] = system: Streptococcus pneumoniae; test: Antibacterial activity against erythromycin-resistant Streptococcus pneumoniae PU-27 expressing erm gene by broth microdilution method

Work on CC[C@H]1OC(=O)[C@H](C)C(=O)[C@H](C)[C@@H](O[C@H]2O[C@H](C)C[C@H](N(C)C)[C@H]2O)[C@](C)(OC)C[C@@H](C)/C(=N\OC/C=C/c2cncc3ccccc23)[C@H](C)[C@@H]2OC(=O)O[C@]12C yielded an MIC [1] of 0.032 µg/mL (≈ 0.0402 µM), an MIC [2] of 64 µg/mL (≈ 80.4 µM) and an MIC [3] of 0.064 µg/mL (≈ 0.0804 µM). For the same compound, the MIC [4] was 256 µg/mL (≈ 322 µM) and the MIC [5] was 0.5 µg/mL (≈ 0.628 µM).

CC[C@H]1OC(=O)[C@H](C)C(=O)[C@H](C)[C@@H](O[C@H]2O[C@H](C)C[C@H](N(C)C)[C@H]2O)[C@](C)(OC)C[C@@H](C)/C(=N\OC/C=C/c2cnc3ccccc3c2)[C@H](C)[C@@H]2OC(=O)O[C@]12C was tested, and the MIC [1] was no more than 0.016 µg/mL, the MIC [2] was 32 µg/mL (≈ 40.2 µM) and the MIC [3] was 0.032 µg/mL (≈ 0.0402 µM). It also gave an MIC [4] of 64 µg/mL (≈ 80.4 µM) and an MIC [5] of 0.064 µg/mL (≈ 0.0804 µM).

CC[C@H]1OC(=O)[C@H](C)C(=O)[C@H](C)[C@@H](O[C@H]2O[C@H](C)C[C@H](N(C)C)[C@H]2O)[C@](C)(OC)C[C@@H](C)/C(=N\OC/C=C/c2cccnc2)[C@H](C)[C@@H]2OC(=O)O[C@]12C showed an MIC [1] of 0.032 µg/mL (≈ 0.0429 µM), an MIC [2] of 128 µg/mL (≈ 172 µM) and an MIC [3] of 0.125 µg/mL (≈ 0.168 µM). It also gave an MIC [4] of 256 µg/mL (≈ 343 µM) and an MIC [5] of 0.125 µg/mL (≈ 0.168 µM).

Work on CC[C@H]1OC(=O)[C@H](C)C(=O)[C@H](C)[C@@H](O[C@H]2O[C@H](C)C[C@H](N(C)C)[C@H]2O)[C@](C)(OC)C[C@@H](C)/C(=N\OC/C=C/c2ccc3ncccc3c2)[C@H](C)[C@@H]2OC(=O)O[C@]12C yielded an MIC [1] of no more than 0.016 µg/mL, an MIC [2] of 32 µg/mL (≈ 40.2 µM) and an MIC [6] of 0.25 µg/mL (≈ 0.314 µM). It also gave an MIC [7] of 1 µg/mL (≈ 1.26 µM), an MIC [3] of 0.032 µg/mL (≈ 0.0402 µM) and an MIC [4] of 64 µg/mL (≈ 80.4 µM). For the same compound, the MIC [5] was no more than 0.016 µg/mL.

With CC[C@H]1OC(=O)[C@H](C)C(=O)[C@H](C)[C@@H](O[C@H]2O[C@H](C)C[C@H](N(C)C)[C@H]2O)[C@](C)(OC)C[C@@H](C)/C(=N\OC/C=C/c2ccc(-n3ccnc3)cc2)[C@H](C)[C@@H]2OC(=O)O[C@]12C the MIC [1] was no more than 0.016 µg/mL, the MIC [2] was 32 µg/mL (≈ 39.5 µM) and the MIC [6] was 0.125 µg/mL (≈ 0.154 µM). It also gave an MIC [7] of 1 µg/mL (≈ 1.23 µM), an MIC [3] of 0.125 µg/mL (≈ 0.154 µM) and an MIC [4] of 64 µg/mL (≈ 78.9 µM). The MIC [5] was 0.125 µg/mL (≈ 0.154 µM).

CC[C@H]1OC(=O)[C@H](C)C(=O)[C@H](C)[C@@H](O[C@H]2O[C@H](C)C[C@H](N(C)C)[C@H]2O)[C@](C)(OC)C[C@@H](C)/C(=N\OC/C=C/c2cncnc2)[C@H](C)[C@@H]2OC(=O)O[C@]12C was tested, and the MIC [1] was no more than 0.016 µg/mL, the MIC [2] was 128 µg/mL (≈ 171 µM) and the MIC [6] was 0.25 µg/mL (≈ 0.335 µM). It also gave an MIC [7] of 1 µg/mL (≈ 1.34 µM), an MIC [3] of 0.032 µg/mL (≈ 0.0428 µM) and an MIC [4] of 256 µg/mL (≈ 343 µM). The MIC [5] was 0.032 µg/mL (≈ 0.0428 µM).

CC[C@H]1OC(=O)[C@H](C)C(O/C=C\Cc2cncc3ccccc23)[C@H](C)[C@@H](O[C@H]2O[C@H](C)C[C@H](N(C)C)[C@H]2O)[C@](C)(OC)C[C@@H](C)/C(=N\OC/C=C/c2cncc3ccccc23)[C@H](C)[C@@H](O)[C@]1(C)O (some centres not stated) gave an MIC [1] of 16 µg/mL (≈ 17 µM) and an MIC [3] of 128 µg/mL (≈ 136 µM).

C=CCOC1[C@@H](C)C(=O)O[C@H](CC)[C@@](C)(O)[C@H](O)[C@@H](C)/C(=N/OC/C=C/c2cncnc2)[C@H](C)C[C@@](C)(OC)[C@H](O[C@H]2O[C@H](C)C[C@H](N(C)C)[C@H]2O)[C@H]1C (some centres not stated) was tested, and the MIC [1] was 8 µg/mL (≈ 10.5 µM), the MIC [2] was 128 µg/mL (≈ 168 µM) and the MIC [6] was 16 µg/mL (≈ 21 µM). For the same compound, the MIC [7] was 128 µg/mL (≈ 168 µM), the MIC [3] was 32 µg/mL (≈ 41.9 µM) and the MIC [4] was greater than 256 µg/mL. It also gave an MIC [5] of 32 µg/mL (≈ 41.9 µM).

Work on CC[C@H]1OC(=O)[C@H](C)[C@@H](O[C@H]2C[C@@](C)(OC)[C@@H](O)[C@H](C)O2)[C@H](C)[C@@H](O[C@@H]2O[C@H](C)C[C@H](N(C)C)[C@H]2O)[C@](C)(O)C[C@@H](C)CN(C)[C@H](C)[C@@H](O)[C@]1(C)O [AZITHROMYCIN] yielded an MIC [1] of 0.064 µg/mL (≈ 0.0854 µM), an MIC [2] of 128 µg/mL (≈ 171 µM) and an MIC [3] of 0.5 µg/mL (≈ 0.668 µM). The MIC [4] was greater than 256 µg/mL and the MIC [5] was 64 µg/mL (≈ 85.4 µM).

CC[C@H]1OC(=O)[C@H](C)[C@@H](O[C@H]2C[C@@](C)(OC)[C@@H](O)[C@H](C)O2)[C@H](C)[C@@H](O[C@@H]2O[C@H](C)C[C@H](N(C)C)[C@H]2O)[C@](C)(OC)C[C@@H](C)C(=O)[C@H](C)[C@@H](O)[C@]1(C)O [CLARITHROMYCIN] gave an MIC [1] of 0.032 µg/mL (≈ 0.0428 µM), an MIC [2] of 128 µg/mL (≈ 171 µM) and an MIC [6] of 4 µg/mL (≈ 5.35 µM). It also gave an MIC [7] of 16 µg/mL (≈ 21.4 µM), an MIC [3] of 0.125 µg/mL (≈ 0.167 µM) and an MIC [4] greater than 256 µg/mL. For the same compound, the MIC [5] was 64 µg/mL (≈ 85.6 µM).
